Experimental data as given in ChEMBL document CHEMBL3507680, “University of Dundee, Gates Library screen for HepG2 cell viability”.

Test: Human HepG2 cell viability assay in 384 well format
Format: toxicity, cell-based
Design: dose 125 nL, time 70.5 hour; concentration not given beside the values
Conditions: HepG2 cells, read-out: Inhibition

Structure (SMILES)	cytotoxicity at 70.5 h
O=C(NCC(O)c1ccc(F)cc1F)c1ccccc1F (centres undefined)	-12.6%
CN(C)CCOc1ccc(CNC(=O)c2cccc(Cl)c2Cl)cc1	8.38%
Cn1cnc(S(=O)(=O)Nc2cc(C(N)=O)ccc2Cl)c1	-8.58%
COc1c(CNCc2ccccc2CO)c(C)nn1C	-5.09%
CCCNC(=O)CN1CCC(NCc2c(C)nn(C)c2OC)CC1	-0.725%
O=C(NCc1ccccc1CO)Nc1ccc2c(c1)CCC2	-1.72%
CNC(=O)c1cccc(CCNS(C)(=O)=O)c1	-2.35%
CC(C)c1nnc2n1CC(CNCc1ccc3c(c1)OCCO3)CC2 (centres undefined)	-3.48%
CC(C)c1cnc(CN(C)C2CCN(CCc3ccncc3)C2)o1 (centres undefined)	18.9%
COCCCN(Cc1ccncc1)c1cc(C)ncn1	6.24%
Cc1cc(NCCNS(=O)(=O)c2cccc(Cl)c2)nc(C)n1	-1%
COc1ccc(F)cc1C[S+]([O-])CC(=O)NCC(C)C (centres undefined)	-0.815%
O=C(Cc1csc(-c2ncccn2)n1)N1CCN2CCCCC2C1 (centres undefined)	7.23%
CCC1CCCCN1Cc1ncc(-c2ccc(OC)cc2)o1 (centres undefined)	18.3%
CCc1ncc2c(n1)CN(CCCOc1ccc(C#N)cc1)CC2	-0.432%
COCCNC(=O)C1CCCN1S(=O)(=O)c1sc(=O)[nH]c1C (centres undefined)	-6.44%
Cc1nnc(CN2CCC(Oc3ccc(F)cc3)CC2)o1	0.0555%
CCCS(=O)(=O)NCC(C)c1ccc(F)c(F)c1 (centres undefined)	6.33%
CNC(=O)c1cccc(CCNc2ccc(C#N)cn2)c1	0.174%
COCc1csc(NC(=O)NCc2ccc(C)s2)n1	1.09%

Structure (SMILES)	cytotoxicity at 70.5 h
COc1ccc(F)cc1C[S+]([O-])CC(=O)NCc1ccccc1 (centres undefined)	-4.53%
Cc1nsc(NCCNS(=O)(=O)c2ccccc2)n1	-1.39%
O=C(Nc1cccc(C(F)F)c1)N[C@@H]1C=C[C@H](CO)C1	2.83%
COc1cccc2[nH]cc(CCNC(=O)N3CCOCC3C3CC3)c12 (centres undefined)	23.2%
CNC(=O)c1cccc(CCNc2ccccn2)c1	-0.207%
Cc1nc(C)n(CC2CCCCN2CC(=O)NCc2ccccn2)n1 (centres undefined)	2.56%
c1cncc(CN(Cc2ccc3c(c2)OCCO3)CC2CCCO2)c1 (centres undefined)	25.2%
OCC1CCCN1c1cc(NCCc2nccs2)ncn1 (centres undefined)	0.047%
Cc1nc(C)n(CC2CCCN2CC(=O)Nc2ccncc2)n1 (centres undefined)	-4.71%
Cc1cc(C(=O)CN(Cc2cccnc2)CC2CCCO2)c(C)[nH]1 (centres undefined)	-15.9%
OCC1CCCN1c1cc(NCc2ccccn2)ncn1 (centres undefined)	0.0157%
CC(C)c1nn(C)c(N2CCOCC2)c1CNCc1nncn1C	0.87%
Cc1noc(C)c1CNCc1c(C(C)C)nn(C)c1N1CCOCC1	-10.5%
Cc1ccsc1CNCc1c(C(C)C)nn(C)c1N1CCOCC1	-20.5%
O=C(CCc1ccsc1)N1CCCC(N2CCNC2=O)C1 (centres undefined)	-10.5%
CN(C)C(=O)C1CCCN1CCCNC(=O)c1ccccc1Cl (centres undefined)	4.52%
Cc1cc(N2CCC(N(C)C(=O)c3cccs3)CC2)nc(C)n1	-18.8%
Cc1cc(C)n(CC2CCCN2C(=O)c2ccc3c(c2)OCCO3)n1 (centres undefined)	-12.8%
Cc1cnn(CC2CCCCN2C(=O)c2ccc3c(c2)nnn3C)c1 (centres undefined)	-1.73%
CSCC(CCO)NC(=O)Nc1cc(F)ccc1C (centres undefined)	10.3%

Structure (SMILES)	cytotoxicity at 70.5 h
O=C(NCC1CC1)C1CSCN1S(=O)(=O)c1cc(F)cc(F)c1 (centres undefined)	-15.2%
c1ccc(-c2cnc(CN(Cc3cccnc3)CC3CCCO3)o2)cc1 (centres undefined)	-7.3%
Cc1cccc(CC(=O)N2CCOCC2c2c(C)n[nH]c2C)c1 (centres undefined)	-18.3%
Cc1ccc(CC(=O)N2CCOCC2c2c(C)n[nH]c2C)cc1 (centres undefined)	-21.7%
Cc1n[nH]c(C)c1C1COCCN1C(=O)Cc1ccccc1F (centres undefined)	-0.503%
Cc1csc(N2CCN(Cc3nccn3C)CC2C)n1 (centres undefined)	-16.3%
CC(C)(C)c1cnc(CN(Cc2cccnc2)CC2CCCO2)o1 (centres undefined)	-12.3%
COC(C)(C)CNC(=O)N1CCCC1c1c(C)n[nH]c1C (centres undefined)	-13.9%
CCN1CCCC1CN(CCN(C)C)S(=O)(=O)c1ccccc1C#N (centres undefined)	29.4%
Cc1ccc(CNCC2CCN(CCO)CC2)cc1	39.2%
CCOC(=O)N1CCN(C(=O)c2sc(-c3ccccc3)nc2C)CC1	48.7%
Cc1ccc(C(=O)NCC2Cc3ccccc3O2)cc1S(C)(=O)=O (centres undefined)	-1.47%
CC(=O)c1ccc(C(=O)NCC2Cc3ccccc3O2)s1 (centres undefined)	23.7%
CCS(=O)(=O)c1ccccc1C(=O)NCC1Cc2ccccc2O1 (centres undefined)	-3.88%
CC(C)S(=O)(=O)c1ccccc1C(=O)NCC1Cc2ccccc2O1 (centres undefined)	-1.85%
Cc1ccc(C(=O)N2CCCC(CNS(=O)(=O)C(C)C)C2)cc1 (centres undefined)	-3.09%
Cc1nccn1-c1cc(CNC(=O)C2CCC(=O)NC2)ccn1 (centres undefined)	12.3%
NC(=O)c1ccc(CNCC2CCN(CCO)CC2)cc1	-5.52%
CC(Oc1ccccc1C(F)(F)F)C(=O)NCCNC(=O)C1CC1 (centres undefined)	-6.09%
